Reference: patent publication US20250154686A1, “COMPOUND LIBRARY” (CHUGAI SEIYAKU KABUSHIKI KAISHA, priority 2021, published 2025)

Target: T1, Bcl-2 protein (Recombinant Human Bcl-2 Protein) (Homo sapiens, UniProt P10415)
T1 construct: purchased Novus Biologicals NBP2-34889
Test: AS-MS evaluation of binding of the Example 4 mixture library (1200 compounds/well) to Bcl-2, ASMS ratio (%)
Conditions: for ASMS ratio (%) n = 1: replicate n = 1; for ASMS ratio (%) n = 2: replicate n = 2
Protocol: DMSO solutions (prepared into approximately 0.58 mM based on calculation from the average molecular weight of each mixture) of 12 types of mixtures that could each contain 100 compounds, i.e., mixAI-B4J-01, mixAI-B1M-01, mixAI-B1K-01, mixAI-BIO-01, mixAI-B1A-01, mixAI-B3A-01, mixAI-B21-01, mixAI-B2L-01, mixAI-B2N-01, mixAI-B2A-01, mixAI-B2Q-01, and mixAI-B2R-01, shown in Table AI-03-B4J-01, Table AI-03-B1M-01, Table AI-03-B1K-01, Table AI-03-B10-01, Table AI-03-B1A-01, Table AI-03-B3A-01, Table AI-03-B21-01, Table AI-03-B2L-01, Table AI-03-B2N-01, Table AI-03-B2A-01, Table AI-03-B2Q-01, and Table AI-03-B2R-01 described in Example 4, were respectively dispensed to a total of 12 wells of MICROPLATE, 96-well, PP, V-BOTTOM (Greiner Bio-One International GmbH, 651201). 70 nL each from the 12 wells was collected into any one well using LABCYTE ECHO® 555 acoustic dispensing system (Beckman Coulter, Inc.) to prepare a sample solution in a mixed state of 1200 compounds (the presence of 1152 compounds was already identified when the mixtures were prepared in Example 4). Further, Bcl-2 protein (Novus Biologicals, NBP2-34889, Recombinant Human Bcl-2 Protein, Lot E60145051) (19.2 μL) prepared at 20.9 μM in advance using a Tris-HCl buffer (25 mM Tris-HCl, pH 7.4, 150 mM NaCl, 0.025% Tween-20, and 1 mM DTT) was added to the well containing the dispensed 1200 compounds (the presence of 1152 compounds was already identified when the mixtures were prepared in Example 4) (final compound concentration: 20 nM, final Bcl-2 concentration: 20 μM), and the plate was incubated at 23° C. for 1 hour in the dark. Subsequently, 200 μL of an assay buffer (25 mM Tris-HCl, pH 7.4, 150 mM NaCl, 0.025% Tween-20, and 1 mM DTT) was centrifuged three times at 2000×G at 4° C. for 2 minutes using 96-well MacroSpin column, P-2 Material (Harvard Bioscience, Inc., 74-5655) that had been allowed to swell to condition the 96-well MacroSpin column. Subsequently, 20 μL of the sample thus incubated was added to the 96-well MacroSpin column, P-2 Material after the completion of conditioning, and SEC treatment was performed by centrifugation at 2000×G for 2 minutes. 32 μL of a 1:1 mixed solution of acetonitrile and methanol (LC/MS grade, FUJIFILM Wako Pure Chemical Corp.) was added to a flow-through liquid from SEC, and the mixture was centrifuged at 1800×G at 4° C. for 5 minutes. The supernatant was used as analysis sample ASMS (A). By a similar operation, a sample prepared at 1200 compounds/well and supplemented with only a Tris-HCl buffer containing no Bcl-2 protein was incubated under the same conditions as above, and the same organic solvent as above was added thereto without 96-well MacroSpin column treatment. A supernatant obtained by a centrifugation operation was used as STD (B). Next, by a similar operation, a sample prepared at 1200 compounds/well and supplemented with only a Tris-HCl buffer containing no Bcl-2 protein was incubated under the same conditions as above and treated with 96-well MacroSpin column in the same manner as above, and the same organic solvent as above was added thereto. A supernatant obtained by a centrifugation operation was used as BK (C). These samples were measured by reverse-phase LC/MS.
Then, the samples A, B and C were analyzed for the 1200 compounds using TraceFinder 5.1 (Thermo Fisher Scientific Inc.) and CHANCE Software (in-house), and an ASMS ratio (%) was calculated according to the following expression.
Although m/z of the MS peaks was confirmed down to four decimal places, 0 at the decimal level may be omitted in the description in Table AJ-01. For example, “587.0000” is also referred to as “587”, “587.1000” is also referred to as “587.1”, “587.1200” is also referred to as “587.12”, and “587.1230” is also referred to as “587.123”.

[1] = AS-MS, mixture of 1200 compounds/well, Bcl-2 protein
[2] = mixture library, value belongs to the MS peak assigned to the compound

T1 sequence (P10415 whole entry): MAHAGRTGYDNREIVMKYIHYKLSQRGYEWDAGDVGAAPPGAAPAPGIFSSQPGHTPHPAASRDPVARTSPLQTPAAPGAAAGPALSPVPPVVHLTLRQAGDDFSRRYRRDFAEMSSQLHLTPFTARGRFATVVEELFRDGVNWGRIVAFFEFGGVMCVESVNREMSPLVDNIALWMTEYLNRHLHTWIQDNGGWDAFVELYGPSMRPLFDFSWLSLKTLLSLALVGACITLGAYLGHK

ASMS ratio (%) n = 1 [1]	ASMS ratio (%) n = 2 [1]	ASMS ratio (%) n = 1 [2]	ASMS ratio (%) n = 2 [2]	Structure (SMILES)
0.0%	0.0%			CCCNC(=O)c1ccc(N2CCN(Cc3ccc(-c4cncc(OCC)c4)c(F)c3)CC2)nn1 [Compound B1M078-01]
3.8%	3.2%			CCCNC(=O)c1ccc(N2CCN(Cc3cc(-c4cccc(OCC)c4)cc(C(F)(F)F)c3)CC2)nn1 [Compound B1M087-01]
0.0%	0.0%			CCCNC(=O)c1ccc(N2CCN(Cc3cc(-c4cncc(OCC)c4)cc(C(F)(F)F)c3)CC2)nn1 [Compound B1M088-01]
0.0%	0.0%			CCCNC(=O)c1ccc(N2CCN(Cc3cc(-c4cccc(OCC)c4)cs3)CC2)nn1 [Compound B1M093-01]
−1.5%	−2.1%			CCCNC(=O)c1ccc(N2CCN(Cc3cc(-c4cncc(OCC)c4)cs3)CC2)nn1 [Compound B1M094-01]
1.1%	0.3%			CCCNC(=O)c1ccc(N2CCN(C(C)c3ccc(-c4cccc(OCC)c4)cc3)CC2)cc1 (centres unmarked) [Compound B1M097-01]
0.9%	0.3%			CCCNC(=O)c1ccc(N2CCN(C(C)c3ccc(-c4cncc(OCC)c4)cc3)CC2)cc1 (centres unmarked) [Compound B1M098-01]
	−2.2%			CCOc1cccc(-c2ccc(CN3CCN(c4ccc(C(=O)Nc5ccc(OC)cc5)nn4)CC3)c3ccccc23)c1 [Compound B1O091-01, 6-[4-[[4-(3-Ethoxyphenyl)naphthalen-1-yl]methyl]piperazin-1-yl]-N-(4-methoxyphenyl)pyridazine-3-carboxamide]
		10.5%	0.5%	CCOc1cccc(-c2cc(CN3CCN(c4ccc(C(=O)NS(=O)(=O)CC56CC7CC(CC(C7)C5)C6)nn4)CC3)cc(OC(F)(F)F)c2)c1 [Compound B2A089-01]
		0.0%	0.0%	CCOc1cccc(-c2cc(C(=O)N3CCN(c4ccc(C(=O)NS(C)(=O)=O)cc4)CC3)cc(C(F)(F)F)c2)c1 [Compound B2I039-01, 4-[4-[3-(3-Ethoxyphenyl)-5-(trifluoromethyl)benzoyl]piperazin-1-yl]-N-methylsulfonylbenzamide]
		0.0%	−2.7%	CCOc1cncc(-c2cc(C(=O)N3CCN(c4ccc(C(=O)NS(C)(=O)=O)cc4)CC3)cc(C(F)(F)F)c2)c1 [Compound B2I040-01, 4-[4-[3-(5-Ethoxypyridin-3-yl)-5-(trifluoromethyl)benzoyl]piperazin-1-yl]-N-methylsulfonylbenzamide]

Continued, compound first:

Structure (SMILES)	ASMS ratio (%) n = 1 [1]	ASMS ratio (%) n = 2 [1]	ASMS ratio (%) n = 1 [2]	ASMS ratio (%) n = 2 [2]
CCCNC(=O)c1ccc(N2CCN(C(=O)c3ccc(-c4cccc(OCC)c4)c4ccccc34)CC2)nn1 [Compound B1M013-01]	2.9%	−1.1%		
CCCNC(=O)c1ccc(N2CCN(C(=O)c3ccc(-c4cncc(OCC)c4)c4ccccc34)CC2)nn1 [Compound B1M014-01]	4.1%	0.4%		
CCCNC(=O)c1ccc(N2CCN(C(=O)c3cc(-c4cccc(OCC)c4)cc(C(C)(C)C)c3)CC2)nn1 [Compound B1M015-01]	−2.4%	−3.0%		
CCCNC(=O)c1ccc(N2CCN(C(=O)c3cc(-c4cncc(OCC)c4)cc(C(C)(C)C)c3)CC2)nn1 [Compound B1M016-01]	0.0%	0.0%		
CCCNC(=O)c1ccc(N2CCN(C(=O)c3cc(-c4cccc(OCC)c4)cc(C(F)(F)F)c3)CC2)nn1 [Compound B1M017-01]	−0.1%	0.3%		
CCCNC(=O)c1ccc(N2CCN(C(=O)c3cc(-c4cncc(OCC)c4)cc(C(F)(F)F)c3)CC2)nn1 [Compound B1M018-01]	0.0%	0.0%		
CCCNC(=O)c1ccc(N2CCN(C(=O)c3cc(C#Cc4cccc(OCC)c4)cc(C(F)(F)F)c3)CC2)nn1 [Compound B1M019-01]	1.5%	0.0%		
CCCNC(=O)c1ccc(N2CCN(C(=O)c3cc(C#Cc4cncc(OCC)c4)cc(C(F)(F)F)c3)CC2)nn1 [Compound B1M020-01]	0.0%	0.0%		
CCCNC(=O)c1ccc(N2CCN(C(=O)c3cc(-n4cc(-c5cccc(OCC)c5)cn4)cc(C(F)(F)F)c3)CC2)nn1 [Compound B1M021-01]	0.0%	0.0%		
CCCNC(=O)c1ccc(N2CCN(C(=O)c3cc(-n4cc(-c5cncc(OCC)c5)cn4)cc(C(F)(F)F)c3)CC2)nn1 [Compound B1M022-01]	−13.6%	6.7%		
CCCNC(=O)c1ccc(N2CCN(C(=O)c3cc(-c4cccc(OCC)c4)cs3)CC2)cc1 [Compound B1M023-01]	1.4%	−3.0%		
CCCNC(=O)c1ccc(N2CCN(C(=O)c3cc(-c4cncc(OCC)c4)cs3)CC2)cc1 [Compound B1M024-01]	0.0%	0.0%		
CCCNC(=O)c1ccc(N2CCN(C(=O)c3ccc(-c4cccc(OCC)c4)c(C)c3)CC2)cc1 [Compound B1M025-01]	3.6%	−1.2%		
CCCNC(=O)c1ccc(N2CCN(C(=O)c3ccc(-c4cncc(OCC)c4)c(C)c3)CC2)cc1 [Compound B1M026-01]	0.9%	0.9%		
CCCNC(=O)c1ccc(N2CCN(C(=O)c3ccc(-c4cccc(OCC)c4)c(F)c3)CC2)cc1 [Compound B1M027-01]	1.0%	0.4%		
CCCNC(=O)c1ccc(N2CCN(C(=O)c3ccc(-c4cncc(OCC)c4)c(F)c3)CC2)cc1 [Compound B1M028-01]	0.0%	0.0%		
CCCNC(=O)c1ccc(N2CCN(Cc3ccc(-c4cccc(OCC)c4)c4ccccc34)CC2)cc1 [Compound B1M065-01]	0.2%	−6.4%		
CCCNC(=O)c1ccc(N2CCN(Cc3cc(-c4cccc(OCC)c4)cs3)CC2)cc1 [Compound B1M067-01]	−1.6%	−87.4%		
CCCNC(=O)c1ccc(N2CCN(Cc3cc(-c4cncc(OCC)c4)cs3)CC2)cc1 [Compound B1M068-01]	1.1%	0.0%		
CCCNC(=O)c1ccc(N2CCN(Cc3ccc(-c4cccc(OCC)c4)c(C)c3)CC2)nn1 [Compound B1M073-01]	0.4%	−0.5%		
CCCNC(=O)c1ccc(N2CCN(Cc3ccc(-c4cncc(OCC)c4)c(C)c3)CC2)nn1 [Compound B1M074-01]	−1.6%	0.9%		
CCCNC(=O)c1ccc(N2CCN(Cc3ccc(-c4cccc(OCC)c4)c(F)c3)CC2)nn1 [Compound B1M077-01]	−0.7%	3.1%		
